In ChEMBL document CHEMBL1201862, “PubChem BioAssay data set” (2004):
Active and inactive are the calls of the source.

Key:
[1] = biological target: Ras and Rab interactor 1/Tyrosine-protein kinase ABL1 (Homo sapiens, UniProt P00519+Q13671); format: functional;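 note: biochemical TR-FRET dose-response test measuring inhibition of binding between Rin1 and Abl proteins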
[2] = viability of PTEN-deleted HCT116 cells – cell-based, HCT116 PTEN knockout, dose response (AID 1047); format: functional;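 note: HCT116 colon tumor cells with PTEN knocked out; cells exposed to compound for 60 hours before readout; potency for loss of cell viability measured by luminescence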
[3] = viability of HCT116 lacking mutant beta-catenin – cell-based, human colon tumor, dose response (AID 1045); format: functional;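 note: HCT116 colon tumor cells with beta catenin knocked out; cells exposed to compound for 60 hours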
Coagulation factor XII = biological target: T1, Coagulation factor XII (Homo sapiens, UniProt P00748); format: functional;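 note: activated factor XIIa alpha cleaving a fluorogenic AMC peptide substrate; inhibitor potency from loss of enzyme activity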
T1 sequence (P00748 whole entry): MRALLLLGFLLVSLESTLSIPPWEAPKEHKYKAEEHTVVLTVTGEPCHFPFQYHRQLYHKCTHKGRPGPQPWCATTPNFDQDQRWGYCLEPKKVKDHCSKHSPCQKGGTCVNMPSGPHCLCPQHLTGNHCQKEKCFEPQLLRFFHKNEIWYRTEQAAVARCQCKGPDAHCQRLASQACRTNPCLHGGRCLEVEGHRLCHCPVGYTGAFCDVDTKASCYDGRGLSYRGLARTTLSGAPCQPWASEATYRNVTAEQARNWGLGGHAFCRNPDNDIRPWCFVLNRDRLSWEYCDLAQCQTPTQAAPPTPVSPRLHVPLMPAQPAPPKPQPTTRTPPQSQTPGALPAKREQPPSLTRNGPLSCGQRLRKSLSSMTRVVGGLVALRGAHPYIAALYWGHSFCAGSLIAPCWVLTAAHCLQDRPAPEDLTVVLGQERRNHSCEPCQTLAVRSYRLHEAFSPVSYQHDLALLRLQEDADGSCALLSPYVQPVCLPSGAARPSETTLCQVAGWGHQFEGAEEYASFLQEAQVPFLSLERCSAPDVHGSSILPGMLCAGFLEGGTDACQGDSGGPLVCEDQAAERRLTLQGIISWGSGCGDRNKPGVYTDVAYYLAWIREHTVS

[4] = biological target: T2, Heat shock factor protein 1 (Mus musculus, UniProt P38532); assay: enhancement of HSF1-driven luciferase signal – cell-based, NIH3T3, luminescence, dose retest, confirmation (AID 435004); format: functional;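 note: stress induced by proteasome inhibitor MG132 added 30 min after compound; luciferase reporter driven by HSF1 response element in NIH3T3 cells; actives raise luminescence as potentiators of the MG132 stress response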
T2 sequence (P38532 whole entry): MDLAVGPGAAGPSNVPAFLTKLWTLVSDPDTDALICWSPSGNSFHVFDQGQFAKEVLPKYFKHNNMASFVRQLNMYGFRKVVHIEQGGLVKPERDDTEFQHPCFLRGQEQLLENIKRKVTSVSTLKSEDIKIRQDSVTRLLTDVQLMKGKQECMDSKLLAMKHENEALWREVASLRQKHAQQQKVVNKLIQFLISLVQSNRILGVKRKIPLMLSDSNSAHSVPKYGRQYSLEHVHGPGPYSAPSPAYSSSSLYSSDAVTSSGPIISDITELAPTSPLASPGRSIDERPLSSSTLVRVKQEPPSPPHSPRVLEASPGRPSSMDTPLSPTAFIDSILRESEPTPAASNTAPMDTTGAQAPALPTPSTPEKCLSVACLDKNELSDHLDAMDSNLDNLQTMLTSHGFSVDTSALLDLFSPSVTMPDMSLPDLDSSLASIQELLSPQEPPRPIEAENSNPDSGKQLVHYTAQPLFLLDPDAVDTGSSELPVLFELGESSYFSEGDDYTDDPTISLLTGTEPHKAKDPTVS

[5] = reduction of Shn3 3'UTR-driven luciferase in osteoblasts – cell-based, Clone20 osteoblasts, firefly luciferase, cherry-picked, dose response (AID 624132); format: functional;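 note: firefly luciferase luminescence from reporter carrying the Shn3 3'UTR in osteoblasts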
[6] = loss of viability in HepG2 cells – cell-based, CellTiter-Glo, cherry-picked, cytotoxicity control for Shn3 inhibitor project, dose response (AID 624134); format: functional
[7] = non-specific 3'UTR reporter inhibition in Clone20-Shn3RL – cell-based, Renilla luciferase, cherry-picked, counter-screen for Shn3 inhibitor project, dose response (AID 624133); format: functional
Vero [8] = assay: cells; format: functional, cell-based; conditions: Chlorocebus sabaeus
Vero [9] = assay: cells; format: functional; conditions: Chlorocebus sabaeus
BJ [10] = assay: BJ-TERT fibroblast viability loss – cell-based, RAS-independent, luminescence, dose response (AID 1933); format: functional; conditions: Homo sapiens
BJ [11] = assay: cells; format: functional, cell-based; conditions: Homo sapiens
BJ [12] = assay: BJ-TERT-LT-ST fibroblast viability loss – cell-based, RAS-independent, luminescence, dose response (AID 1935); format: functional; conditions: Homo sapiens;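 note: BJ fibroblasts immortalized with TERT plus LT and ST oncogenes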
[13] = DRD fibroblast viability loss – cell-based, non-viral oncogenic, luminescence, dose response (AID 1934); format: functional; conditions: Homo sapiens
INS1 = assay: INS-1E survival protection against cytokine death – cell-based, luminescence, retest, dose response (AID 449756); format: functional; conditions: Rattus norvegicus;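 note: cell death triggered by IL-1 beta plus TNF-alpha plus IFN-gamma mixture; protective hits raise ATP signal compared with cytokine alone wells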
[14] = blockers of CRF-binding protein–CRF-R2 complex – cell-based, uHTS hits, 384-well, dose response (AID 651639); format: functional, Homo sapiens; conditions: read-out: IC50_Mean
[15] = biological target: T3, Short transient receptor potential channel 4 (Mus musculus, UniProt Q9QUQ5); assay: block of DAMGO-driven TRPC4 calcium entry – cell-based, HEK293 TRPC4/mu-opioid, Fluo-4 calcium, dose response (AID 434942); format: functional;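 note: potency of inhibitors blocking the TRPC4 calcium response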
T3 sequence (Q9QUQ5 whole entry): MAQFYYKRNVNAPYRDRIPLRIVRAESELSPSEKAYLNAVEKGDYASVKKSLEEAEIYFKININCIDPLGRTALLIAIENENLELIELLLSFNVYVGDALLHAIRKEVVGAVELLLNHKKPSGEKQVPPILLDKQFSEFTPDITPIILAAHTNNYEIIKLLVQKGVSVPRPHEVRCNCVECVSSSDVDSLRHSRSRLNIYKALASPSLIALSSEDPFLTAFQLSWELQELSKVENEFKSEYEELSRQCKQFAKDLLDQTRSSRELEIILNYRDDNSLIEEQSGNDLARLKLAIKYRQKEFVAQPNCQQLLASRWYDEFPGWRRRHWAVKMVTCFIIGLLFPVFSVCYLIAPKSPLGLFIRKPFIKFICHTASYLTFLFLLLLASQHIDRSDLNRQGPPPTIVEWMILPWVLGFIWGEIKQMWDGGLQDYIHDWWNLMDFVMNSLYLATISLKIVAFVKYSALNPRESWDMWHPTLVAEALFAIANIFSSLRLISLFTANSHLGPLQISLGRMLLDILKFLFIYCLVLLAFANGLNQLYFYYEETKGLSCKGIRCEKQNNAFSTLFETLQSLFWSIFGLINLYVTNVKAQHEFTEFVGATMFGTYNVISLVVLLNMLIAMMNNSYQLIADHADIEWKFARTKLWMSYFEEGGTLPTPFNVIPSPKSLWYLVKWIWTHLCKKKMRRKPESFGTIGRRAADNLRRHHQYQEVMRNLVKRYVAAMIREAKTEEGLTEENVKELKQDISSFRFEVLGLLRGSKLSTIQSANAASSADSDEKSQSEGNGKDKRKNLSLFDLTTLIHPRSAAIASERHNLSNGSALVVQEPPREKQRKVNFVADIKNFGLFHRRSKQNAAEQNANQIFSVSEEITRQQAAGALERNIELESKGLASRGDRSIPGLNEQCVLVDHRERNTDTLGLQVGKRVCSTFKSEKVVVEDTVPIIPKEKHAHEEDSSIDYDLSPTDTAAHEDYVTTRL

[16] = microbe, parasite or virus in culture; format: functional; conditions: Mycobacterium tuberculosis
[17] = bead-based luminescence quenchers, dual-tagged ARNT – biochemical, AlphaScreen, cherry-pick, artefact control for ARNT-TACC3 interaction inhibitor project, dose response (AID 651705); format: functional;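 note: AlphaScreen bead proximity signal that flags compounds interfering with the detection technology; potency reflects signal decrease which marks the compound as an assay artifact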
Protein Wnt-3a = Protein Wnt-3a (Mus musculus, UniProt P27467); assay: antagonism of Wnt3a pathway luciferase reporter – Wnt-LIGHT cells, luminescence, selectivity assay for Gli-SUFU antagonist project, dose response (AID 651570); format: functional; conditions: read-out: IC50_Mean;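 note: Wnt-LIGHT reporter cells stimulated with conditioned medium from Wnt3a-producing cells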
Chain of Protein Wnt-3a (P27467 whole entry): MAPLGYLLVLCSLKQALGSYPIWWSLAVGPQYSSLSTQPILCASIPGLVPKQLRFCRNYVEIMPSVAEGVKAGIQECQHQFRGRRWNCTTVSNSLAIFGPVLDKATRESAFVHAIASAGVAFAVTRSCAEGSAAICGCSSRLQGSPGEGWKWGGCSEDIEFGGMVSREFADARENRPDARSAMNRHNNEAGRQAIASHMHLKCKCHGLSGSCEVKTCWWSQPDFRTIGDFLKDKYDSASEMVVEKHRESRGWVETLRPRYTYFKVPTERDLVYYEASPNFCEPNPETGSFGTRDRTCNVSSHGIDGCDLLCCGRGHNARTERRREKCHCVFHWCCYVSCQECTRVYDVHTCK

[18] = viability of uninfected HEp-2 cells – cell-based, HTS, cytotoxicity control for RSV inhibitor project, dose response (AID 2410); format: functional; conditions: human respiratory syncytial virus
[19] = Luminescence Cell-Based Dose Response HTS to Identify Inhibitors of 5'UTR Stem-Loop Driven Prion Protein mRNA Translation in H4 Neuroglioblastoma Cells. [Related pubchem assays: 1827 (Project Summary), 1813 (Primary HTS)]; format: functional
[20] = alpha-synuclein stem-loop luciferase translation blockers – H4 neuroglioma cells, luminescence, confirmation (AID 1988); format: functional, cell-based
[21] = biological target: T2, Heat shock factor protein 1; assay: decrease of HSF1-responsive luciferase luminescence – cell-based, NIH3T3, dose retest, confirmation (AID 2382); format: functional;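 note: NIH3T3 fibroblasts with HSF1-driven luciferase reporter stressed by proteasome inhibitor MG132; luminescence from HSF1-driven luciferase expression after 8 hours of MG132 stress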
[22] = Luminescence Cell-Based Dose Retest to Confirm Inhibitors of Cancer Stem Cells. [Related pubchem assays (depositor defined):AID2717, AID2721]; format: functional; conditions: Homo sapiens
[23] = biological target: T4, Corticotropin-releasing factor receptor 2/Corticotropin-releasing factor-binding protein (Homo sapiens, UniProt P24387+Q13324); assay: Dose Response confirmation of uHTS hits for small molecule antagonists of the CRF-binding protein and CRF-R2 receptor complex.; format: functional; conditions: read-out: IC50_Mean
T4 sequence (Q13324 whole entry): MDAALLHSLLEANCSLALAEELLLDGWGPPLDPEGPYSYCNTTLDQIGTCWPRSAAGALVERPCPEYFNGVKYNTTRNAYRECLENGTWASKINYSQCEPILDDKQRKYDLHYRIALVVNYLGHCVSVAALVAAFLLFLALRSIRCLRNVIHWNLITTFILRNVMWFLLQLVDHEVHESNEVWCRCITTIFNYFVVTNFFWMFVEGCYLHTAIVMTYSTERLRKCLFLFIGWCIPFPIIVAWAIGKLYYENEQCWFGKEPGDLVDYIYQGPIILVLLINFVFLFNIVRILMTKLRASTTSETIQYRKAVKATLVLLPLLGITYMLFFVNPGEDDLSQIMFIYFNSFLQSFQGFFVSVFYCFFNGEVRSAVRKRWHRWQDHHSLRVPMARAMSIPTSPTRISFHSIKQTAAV
T4 sequence (P24387 whole entry): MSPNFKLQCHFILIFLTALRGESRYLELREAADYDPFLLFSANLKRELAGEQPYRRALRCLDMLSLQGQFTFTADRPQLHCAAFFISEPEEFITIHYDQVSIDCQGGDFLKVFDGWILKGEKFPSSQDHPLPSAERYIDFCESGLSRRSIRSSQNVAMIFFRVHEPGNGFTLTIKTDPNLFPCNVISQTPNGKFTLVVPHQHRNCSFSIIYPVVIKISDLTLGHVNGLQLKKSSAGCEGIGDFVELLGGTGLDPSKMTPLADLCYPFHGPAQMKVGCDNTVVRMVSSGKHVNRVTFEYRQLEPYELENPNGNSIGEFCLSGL

[24] = biological target: T4, Corticotropin-releasing factor receptor 2/Corticotropin-releasing factor-binding protein; assay: activators of CRF receptor 2 with binding protein – uHTS hits, confirmation (AID 602473); format: functional; conditions: read-out: EC50_Mean
[25] = luciferase reporter signal suppression in cells – H4 neuroglioma cells, luminescence, dose response (AID 1990); format: functional, cell-based

Chain of Ras and Rab interactor 1/Tyrosine-protein kinase ABL1 (P00519 whole entry): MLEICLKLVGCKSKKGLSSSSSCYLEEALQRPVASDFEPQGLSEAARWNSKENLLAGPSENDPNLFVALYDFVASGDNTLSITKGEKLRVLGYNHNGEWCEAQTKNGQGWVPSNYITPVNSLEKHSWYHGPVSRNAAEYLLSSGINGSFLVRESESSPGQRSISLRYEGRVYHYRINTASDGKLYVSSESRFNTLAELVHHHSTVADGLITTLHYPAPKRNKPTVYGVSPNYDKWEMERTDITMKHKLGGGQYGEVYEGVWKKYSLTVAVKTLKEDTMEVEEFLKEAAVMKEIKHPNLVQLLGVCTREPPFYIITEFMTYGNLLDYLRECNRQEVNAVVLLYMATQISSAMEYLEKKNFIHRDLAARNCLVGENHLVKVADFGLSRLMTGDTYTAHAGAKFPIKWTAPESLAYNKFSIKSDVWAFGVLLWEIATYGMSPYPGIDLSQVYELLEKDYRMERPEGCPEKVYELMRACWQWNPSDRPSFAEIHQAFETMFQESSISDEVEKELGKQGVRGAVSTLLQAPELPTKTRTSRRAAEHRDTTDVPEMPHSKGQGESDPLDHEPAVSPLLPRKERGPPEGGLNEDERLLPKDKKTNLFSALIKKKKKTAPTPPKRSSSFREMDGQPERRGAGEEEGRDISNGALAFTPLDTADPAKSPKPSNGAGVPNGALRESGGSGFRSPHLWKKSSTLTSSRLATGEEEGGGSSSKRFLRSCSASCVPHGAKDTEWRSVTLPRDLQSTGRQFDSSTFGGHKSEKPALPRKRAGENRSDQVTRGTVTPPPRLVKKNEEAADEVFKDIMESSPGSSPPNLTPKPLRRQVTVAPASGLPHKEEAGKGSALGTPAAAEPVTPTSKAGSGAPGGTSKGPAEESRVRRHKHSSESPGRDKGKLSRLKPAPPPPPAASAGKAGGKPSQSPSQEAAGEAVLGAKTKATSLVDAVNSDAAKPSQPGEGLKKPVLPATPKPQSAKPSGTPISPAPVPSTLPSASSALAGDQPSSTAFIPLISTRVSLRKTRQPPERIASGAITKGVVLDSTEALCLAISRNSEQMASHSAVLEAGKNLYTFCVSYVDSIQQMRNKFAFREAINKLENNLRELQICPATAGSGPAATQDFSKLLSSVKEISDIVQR
Chain of Ras and Rab interactor 1/Tyrosine-protein kinase ABL1 (Q13671 whole entry): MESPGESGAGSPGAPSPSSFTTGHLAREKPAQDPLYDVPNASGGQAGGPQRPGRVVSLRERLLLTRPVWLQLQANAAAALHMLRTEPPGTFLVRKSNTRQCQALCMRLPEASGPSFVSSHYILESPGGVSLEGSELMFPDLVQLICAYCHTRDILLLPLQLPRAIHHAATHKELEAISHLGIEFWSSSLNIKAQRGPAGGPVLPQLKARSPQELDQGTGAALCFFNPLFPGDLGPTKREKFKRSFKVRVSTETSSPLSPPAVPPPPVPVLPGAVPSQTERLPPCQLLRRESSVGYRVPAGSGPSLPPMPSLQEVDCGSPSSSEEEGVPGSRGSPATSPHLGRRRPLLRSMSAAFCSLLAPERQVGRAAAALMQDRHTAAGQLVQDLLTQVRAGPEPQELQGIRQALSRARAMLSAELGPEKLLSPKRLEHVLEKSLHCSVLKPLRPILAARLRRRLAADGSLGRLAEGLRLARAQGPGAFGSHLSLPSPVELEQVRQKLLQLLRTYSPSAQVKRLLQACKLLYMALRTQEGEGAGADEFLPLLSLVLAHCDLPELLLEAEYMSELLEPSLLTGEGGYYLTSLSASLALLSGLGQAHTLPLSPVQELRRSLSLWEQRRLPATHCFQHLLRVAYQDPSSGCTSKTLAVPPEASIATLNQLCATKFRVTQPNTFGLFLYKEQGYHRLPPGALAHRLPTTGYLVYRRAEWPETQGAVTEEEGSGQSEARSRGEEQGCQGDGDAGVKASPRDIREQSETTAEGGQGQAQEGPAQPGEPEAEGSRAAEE

CC(=O)Nc1cccc(-c2ccnc3c2CC(C(=O)NCc2ccc(N4CCN(C)CC4)cc2)O3)c1 (stereo not given)
IC50 [1]: 14.4 µM (inactive)

O=C(CN(C(=O)c1ccccc1Cl)C1CCCCC1)Nc1ccc(Cl)c([N+](=O)[O-])c1
EC50 [2]: 16.1 µM (active)
EC50 [3]: 17.4 µM (active)
IC50 (Coagulation factor XII): > 50 µM (inactive)
EC50 [4]: > 260 µM (inactive)
AC50 [5]: 5.1 µM (active)
AC50 [6]: 63.7 µM (active)
AC50 [7]: 10.8 µM (active)

CN(C)CC1CCC/C(=C/c2ccc(Cl)cc2)C1=O (stereo not given)
IC50 (Vero [8]): > 25 µM (active)
CC50 (Vero [9]): 21.4 µM (active)

O=c1[nH]c(=O)n(-c2ccc(F)cc2)c2c1C(C(F)(F)F)(C(F)(F)F)NC(c1ccc(F)cc1)=N2
EC50 (BJ [10]): > 150 µM (not active)
EC50 (BJ [11]): 66.7 µM (inconclusive)
EC50 (BJ [12]): > 150 µM (not active)
EC50 [13]: 25.7 µM (active)
AC50 (INS1): 5.15 µM (active)
IC50 [14]: 13.2 µM (active)

CCOc1ccccc1N(C(=O)c1snc(C(N)=O)c1N)C(C(=O)NCc1ccccc1)c1ccc(O)cc1 (stereo not given)
EC50 [15]: 4.22 µM (active)
IC50 [1]: > 73.5 µM (inactive)

c1ccc(-c2n[nH]c(-c3ccccn3)n2)cc1
CC50 [16]: > 40 µM (active)
AC50 [17]: 116 µM (active)

CCOC(CN=c1nc(N(C)C)ss1)OCC
IC50 (Protein Wnt-3a): 40.4 µM (inactive)

Cc1cc(C(=O)Cn2nnc3ccccc3c2=O)c(C)n1-c1ccccc1F
CC50 [18]: 20.4 µM (active)
EC50 [19]: 10.1 µM (active)
EC50 [20]: 9.28 µM (active)
IC50 (Vero [8]): 6.16 µM (active)
IC50 (cells): 30.9 µM (active)

COc1cccc(CNc2ccc(S(N)(=O)=O)cc2)c1OC
EC50 [21]: > 195 µM (not active)
IC50 (Coagulation factor XII): > 50 µM (inactive)

Cc1cc(C)nc(SCc2ccc(C(=O)NNC(=O)Nc3cccc(Cl)c3)cc2)n1
AC50 [22]: 3.65 µM (active)
IC50 [23]: 5.95 µM (active)
EC50 [24]: > 53 µM (inactive)
IC50 [14]: 11.6 µM (active)

CCOC(=O)c1c(-c2ccc(OC)c(OC)c2)csc1NC(=O)C1CCCO1 (stereo not given)
IC50 [23]: 3.95 µM (active)
EC50 [24]: > 53 µM (inactive)
IC50 [14]: > 20 µM (inactive)

O=C(NC1CCCc2c1cnn2-c1ccccc1F)c1ccccn1 (stereo not given)
EC50 [25]: > 120 µM (not active)
EC50 [20]: 57.4 µM (active)
IC50 (Vero [8]): 5.73 µM (active)
CC50 (Vero [9]): > 25 µM (active)

CCOCc1nnc(NC(=O)c2c(OC)cccc2OC)s1
IC50 [1]: 18 µM (inactive)

COc1ccc(-[n+]2cc(-c3ccc(OC(F)F)cc3)n3c2CCCCC3)cc1
AC50 (INS1): 2.14 µM (active)
IC50 (Protein Wnt-3a): 12.3 µM (active)

O=C(Nc1ccccc1SCC1CSc2nc3ccccc3c(=O)n21)c1cccc(Cl)c1 (stereo not given)
CC50 [18]: 24.7 µM (active)
IC50 (Vero [8]): 14.9 µM (active)
CC50 (Vero [9]): > 25 µM (active)
IC50 (cells): 10.3 µM (active)

Cc1cc(C)c(C(N)=O)c(SCC(=O)c2cc(C)n(-c3cc(C)on3)c2C)n1
AC50 [5]: 0.942 µM (active)
AC50 [6]: 1.68 µM (active)
AC50 [7]: 0.332 µM (active)
IC50 (Protein Wnt-3a): 1.8 µM (active)
